Measured values reported in paper PMC8296985, “A Covalent Calmodulin Inhibitor as a Tool to Study Cellular Mechanisms of K-Ras-Driven Stemness” (Frontiers in Cell and Developmental Biology, 2021).
Read-outs that look alike come from different tables or passages of the source.

Key:
Hs 578T = assay: 3D spheroid (tumorosphere) formation assay, low attachment, serum-free, alamarBlue; assay type: cell-based; conditions: Homo sapiens
Method: (§1) 3D spheroid formation assays were performed in 96-well low-attachment, suspension culture plates (cat. no. 655185, Cellstar, Greiner Bio-One) under serum-free condition. About 1,000 (MDA-MB-231, NCI-H358, and MIA PaCa-2) or 2,500 (Hs 578T) cells per well were seeded in 50 μl of either an RPMI medium (cat. no. 52400-025, Gibco, Thermo Fisher Scientific) (MDA-MB-231, A375, and NCI-H358) or DMEM (cat. no. 41965-039, Gibco, Thermo Fisher Scientific) (Hs 578T and MIA PaCa-2), containing 0.5% MethoCult (cat. no. SF H4636, Stemcell technologies), 1x B27 (cat. no. 17504044, Gibco, Thermo Fisher Scientific), 25 ng/ml EGF (cat. no. E9644, Sigma-Aldrich), and 25 ng/ml FGF (cat. no. RP-8628, Thermo Fisher Scientific). Cells were cultured for 3 days and then treated with compounds or vehicle control (DMSO 0.1% v/v in growth medium) for another 3 days. The cells were supplemented with a fresh growth medium on the third day together with the drug treatment. For knockdown experiments, cells were seeded in 12-well plates and treated with either 50 nM scrambled siRNA (cat. no. 1022076, QIAGEN) or indicated concentrations of siRNAs. Next day, cells were collected by trypsinization and re-plated into 96-well plates for 3D spheroid suspension culture.
(§2) Spheroid formation efficiency was analyzed by an alamarBlue assay reagent (cat. no. DAL1100, Thermo Fisher Scientific). A 10% final volume of the alamarBlue reagent was added to each well of the plate and incubated for 4 h at 37°C. Then the fluorescence intensity was measured using the FLUOstar OPTIMA plate reader (BMG Labtech, Germany) with an excitation wavelength of 560 ± 5 nm and an emission wavelength of 590 ± 5 nm.
(§3) To quantitatively profile the drug sensitivity with a more robust parameter than the IC50 or EC50 values, the drug sensitivity score (DSS) analysis was employed. DSS values are essentially normalized area under the curve (AUC) measures of dose-response inhibition data ([Yadav et al., 2014]). Drug response data files (in Excel) ready for online analysis were prepared according to the example file obtained from the DSS pipeline website, called Breeze^1 ([Potdar et al., 2020]). Either raw fluorescence intensity measurements or normalized % inhibition data (for BRET assay analysis) were uploaded.
(§4) DSS3 was employed to emphasize drugs that obtain their response area over a relatively wide dose window, as compared to drugs that show increased response only at the higher end of the concentration range. After logistic fitting of the dose-response inhibition data, the area under the curve (AUC) was determined as the exact solution. A 10% minimal activity threshold (t) was set. The maximum (Cmax) and minimum (Cmin) concentrations were used for screening of the inhibitors, with Cmax = x2 and x1 concentration with minimal activity t.

MDA-MB-231 = assay: as above; assay type: cell-based; conditions: for IC50: Homo sapiens; for KRAS/HRAS mutant cell line DSS3 ratio: MDA-MB-231 vs Hs 578T 3D spheroid formation, 0.6–40 μM, numbers above bars Fig. 1A,B
Method: as §1, §2, §3, §4

[1] = molecular target: T1, mutCaM (CaM with K75Q, K77Q, and K148Q mutations) (Homo sapiens, UniProt P0DP23, K76Q/K78Q); assay: Fluorescence polarization assay with F-CaMKII peptide and His-mutCaM; assay type: binding; conditions: 50 nM His-mutCaM, 5 nM F-CaMKII, compared to wt CaM
T1 construct: made in house; host or cells: E. coli BL21 Star (DE3)pLysS
Method: Our numbering of CaM follows ([Kong Au and Chow Leung, 1998]) with Ala being the first amino acid in human CaM, as the N-terminal methionine of CaM is removed in most organisms ([Halling et al., 2016]). […] At A600 of 0.6–0.8, the culture was induced with 0.5 mM of isopropyl β-D-thiogalactopyranoside and expressed for 16 h at 25°C. Cells were collected by centrifugation and incubated on ice for 30 min. The cell suspension was sonicated in a lysis buffer (20 mM HEPES, pH 7.6, 150 mM NaCl, 5 mM MgCl2, 0.5 mg/ml lysozyme, and DNase I). The lysates were clarified by centrifugation at 18,000 g for 30 min at 4°C. The soluble fractions were subjected to protein purification.

[2] = 72 h, Hs 578T (H-RasG12D) 3D tumorosphere, 3 days treatment, read-out: IC50
[3] = Hs 578T 3D tumorosphere, log scale, read-out: logIC50 ± SD (converted)
[4] = 72 h, MDA-MB-231 (K-RasG13D) 3D tumorosphere, 3 days treatment, read-out: IC50
[5] = MDA-MB-231 3D tumorosphere, log scale, read-out: logIC50 ± SD (converted)

Row | Structure (SMILES) | IC50 (Hs 578T; [2]) [µM] | IC50 (Hs 578T; [3]) [µM] | IC50 (MDA-MB-231; [4]) [µM] | IC50 (MDA-MB-231; [5]) [µM] | KRAS/HRAS mutant cell line DSS3 ratio (MDA-MB-231) | binding to mutCaM over time [1]
1 | CC(C)c1ccc2cc(C(F)(F)F)c(=O)c3c(N4CCCCC4)c(C=O)c(c1)c23 [Compound 1] | 22.5 | 22.4 | 12 | 12 | 4.1 | displayed binding to mutCaM
2 | CC(C)=C[C@H]1C[C@H](C)[C@]2(CC[C@]3(C)C[C@H]4[C@H](C(=O)C[C@@]4(C)O)/C(C=O)=C\C[C@H]32)O1 [OphA, Ophiobolin A, reference compound] | 1.8 | 1.78 | 0.3 | 0.288 | 3.1 | no binding was observed to mutCaM
